# Test: seven days indicative acute toxicity after oral administration
# Details: rat, in vivo, rats
# Experimental: Seven days indicative acute toxicity after oral administration was assessed for the compounds of the invention. For example, for the compound identified by the code K 13262, a LD50 >400 mg/kg in rats was obtained.
structure (smiles),measurement,value
"CCCc1c([C@@H]2C[C@H]2c2ccccc2)oc2ccc(C(=O)O)cc2c1=O (relative stereo) [K 13262, trans 6-carboxy-3-propyl-2-(2-phenyl-cyclopropyl)-chromone]",LD50 at 168 h,> 400 mg/kg

# Reference: US4160028A, “Substituted 2-cyclopropyl-chromones and pharmaceutical compositions and use thereof” (Carlo Erba S.p.A., priority 1977, dated 1979)
